Drawing on patent US20070254952A1, “CANNABINOID RECEPTOR MODULATORS” (priority 2006, published 2007), this text covers Ki for five compounds.

Some results are limits rather than exact numbers.

In one assay the target is T1, CB2 receptor (Homo sapiens, UniProt P34972).
T1 construct: purchased
Kind of assay: Competition binding assay for cannabinoid CB2 affinity (3H-CP55,940 displacement, membranes). As to conditions: membranes from cells expressing the receptor, 0.5 nM 3H-CP55,940; Ki by Cheng and Prusoff. The protocol: (§1) Competition binding assays for cannabinoid CB1 and CB2 affinity were performed by incubating commercially purchased membranes prepared from cells expressing each receptor subtype (8 μg pro) with 0.5 nM ^3H-CP55,940, a non-selective cannabinoid agonist, along with concentrations of drug ranging from 0.0001-3 μM in Buffer A (5 mM MgCl2, 2.5 mM EDTA and […] BSA). Non-specific binding was defined in the presence of 10 μM CP55,940. For saturation studies, concentrations of ^3H-CP55,940 ranging from 0.1-5 nM were incubated with membranes in the presence and absence of 10 μM CP55,940. Assays were terminated after incubation for 1½ hours by rapid filtration onto 0.3% polyethylenamine treated GF/C filterplates using a BRANDEL cell harvester. The plates were dried and MICROSCINT scintillation cocktail was added, after which the bound radioactivity was quantified using a TOPCOUNT scintillation counter.
(§2) The dissociation constant (Kd) of ^3H-CP55,940 at the CB1 and CB2 receptor were determined by plotting specific binding at each concentration of radioligand, and analysis by non-linear regression. For competition studies, the concentration of each drug that inhibited 50 percent of ^3H-CP55,940 binding (IC50) was determined by non-linear regression analysis of the radioligand displacement curves. Affinity constants (Ki) were calculated using the equation derived by Cheng and Prusoff (1973), defined as: IC50/1+[conc. ligand/Kd].

A further assay has as its target T2, CB1 receptor (Homo sapiens, UniProt P21554).
T2 construct: purchased
Kind of assay: Competition binding assay for cannabinoid CB1 affinity (3H-CP55,940 displacement, membranes). As to conditions: membranes from cells expressing the receptor, 0.5 nM 3H-CP55,940; Ki by Cheng and Prusoff. How it is done: as §1, §2

T2 sequence (P21554 whole entry): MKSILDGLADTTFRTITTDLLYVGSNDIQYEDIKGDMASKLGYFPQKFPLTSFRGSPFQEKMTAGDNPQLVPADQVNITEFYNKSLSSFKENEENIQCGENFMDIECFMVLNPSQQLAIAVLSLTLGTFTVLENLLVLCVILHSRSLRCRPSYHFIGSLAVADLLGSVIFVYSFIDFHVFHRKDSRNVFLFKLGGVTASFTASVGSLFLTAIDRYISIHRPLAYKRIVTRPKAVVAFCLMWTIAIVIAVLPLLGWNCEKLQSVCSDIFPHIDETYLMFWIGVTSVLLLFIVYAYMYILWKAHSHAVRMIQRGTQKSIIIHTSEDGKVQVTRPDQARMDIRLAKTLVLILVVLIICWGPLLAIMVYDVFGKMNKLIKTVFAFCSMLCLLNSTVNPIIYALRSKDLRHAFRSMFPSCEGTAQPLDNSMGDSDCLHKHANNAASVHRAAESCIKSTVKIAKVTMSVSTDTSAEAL
T1 sequence (P34972 whole entry): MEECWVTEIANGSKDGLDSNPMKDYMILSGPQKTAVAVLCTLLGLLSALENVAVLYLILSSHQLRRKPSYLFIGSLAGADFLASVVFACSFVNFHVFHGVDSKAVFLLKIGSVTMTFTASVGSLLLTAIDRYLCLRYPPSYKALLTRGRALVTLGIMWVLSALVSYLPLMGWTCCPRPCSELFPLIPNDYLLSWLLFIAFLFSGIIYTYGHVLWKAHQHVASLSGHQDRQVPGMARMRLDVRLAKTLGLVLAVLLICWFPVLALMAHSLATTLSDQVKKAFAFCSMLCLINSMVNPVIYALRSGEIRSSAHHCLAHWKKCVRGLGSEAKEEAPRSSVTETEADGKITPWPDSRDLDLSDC

As a reminder, the Ki is the equilibrium dissociation constant of an inhibitor or competing ligand from its target. Higher therefore signals weaker binding. In the case of `N#Cc1ccc(CNC[C@@H]2C[C@H](c3ccc(Cl)cc3)[C@H](c3ccc(Cl)cc3Cl)C2)cc1` [Compound 14], the Ki on CB2 receptor is over 1800 nM; at CB1 receptor, 12.7 nM.

On to `N#Cc1ccc(NC[C@@H]2C[C@H](c3ccc(Cl)cc3)[C@H](c3ccc(Cl)cc3Cl)C2)cc1` [Compound 15], for which the Ki at CB2 receptor was over 1500 nM; at CB1 receptor it was 1 nM.

For `N#Cc1ccc(NC[C@H]2C[C@H](c3ccc(Cl)cc3)[C@H](c3ccc(Cl)cc3Cl)C2)cc1` [Compound 16], the Ki at CB2 receptor and at CB1 receptor was over 1500 nM in each case.

Regarding `Fc1ccc(OC[C@@H]2C[C@H](c3ccc(Cl)cc3)[C@H](c3ccc(Cl)cc3Cl)C2)cc1F` [Compound 17], the values for the Ki at CB2 receptor and at CB1 receptor were over 1800 nM and 12.5 nM, respectively.

Take `N#Cc1ccc(OC[C@@H]2C[C@H](c3ccc(Cl)cc3)[C@H](c3ccc(Cl)cc3Cl)C2)cc1` [Compound 18]: the Ki at CB2 receptor was over 1500 nM; at CB1 receptor it was 1.86 nM.
